Measurements published in PubChem BioAssay AID493250 (Broad Institute, 2011).
Activity calls are given as the source filed them.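 How the source made its calls: active means signal decrease with fitted half-maximal dose at or below ten times the highest valid tested dose; inconclusive means poor fit, or flat fit at 30 to 70% inhibition; inactive means the rest.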

Each compound was assayed against Zinc finger protein mex-5 (Caenorhabditis elegans) (UniProt Q9XUB2) (assay: inhibitors of MEX-5 RNA binding, dose response, biochemical, fluorescence polarization, C. elegans, cherry-picked, round 3 (AID 493250)). Settings: purified MEX-5-MBP, FITC-TCR2 RNA fluorescence polarization.
Chain of Zinc finger protein mex-5 (Caenorhabditis elegans) (Q9XUB2 whole entry, looked up): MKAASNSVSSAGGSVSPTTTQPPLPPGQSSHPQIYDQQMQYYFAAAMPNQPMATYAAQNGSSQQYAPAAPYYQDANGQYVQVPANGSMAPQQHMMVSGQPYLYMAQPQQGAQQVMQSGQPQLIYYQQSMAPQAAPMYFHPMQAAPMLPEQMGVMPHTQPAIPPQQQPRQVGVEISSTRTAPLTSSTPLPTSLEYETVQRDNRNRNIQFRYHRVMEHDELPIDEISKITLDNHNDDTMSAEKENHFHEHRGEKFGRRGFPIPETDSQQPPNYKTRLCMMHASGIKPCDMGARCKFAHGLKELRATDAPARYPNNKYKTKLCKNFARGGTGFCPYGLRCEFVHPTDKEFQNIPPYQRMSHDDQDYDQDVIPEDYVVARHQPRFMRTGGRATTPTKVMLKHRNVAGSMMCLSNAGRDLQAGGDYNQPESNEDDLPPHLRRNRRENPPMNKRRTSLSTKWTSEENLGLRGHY

| Structure (SMILES) | AC50 |
| --- | --- |
| CCN1C(=O)c2cccc3c(NC(=O)C4CCCCC4)ccc1c23 | 6.96 µM |
| COc1ccc(NS(=O)(=O)c2cccc(C(=O)NNC(=O)c3cc(S(N)(=O)=O)ccc3OC)c2)cc1 | > 10 µM (inactive) |
| COc1ccc(NC(=O)c2cccc(-c3ccc(O)cc3)c2)cn1 | 3.91 µM |
| CCOC(=O)/C(=C/c1ccc(N2CCC(c3ccccc3)=N2)cc1)C(C)=O | 2.43 µM |
| CCCOc1cc(N(CC)CC)ccc1/C=C(/C#N)c1nc2ccc(C)cc2[nH]1 | 6.33 µM |

Same assay, conditions: purified MEX-5-MBP, FITC-TCR2 RNA fluorescence polarization; at 10 µM (top of the series)

| Structure (SMILES) | activity change, negative = inhibition |
| --- | --- |
| COC(=O)c1ccccc1-c1ccc(C(c2c(C)[nH][nH]c2=O)c2c(C)[nH][nH]c2=O)o1 | inactive |
| O=C(O)c1[nH]c2ccccc2c1C(c1cc(Br)ccc1O)c1c(C(=O)O)[nH]c2ccccc12 | inactive |
| Cc1cccc(C(=O)NNC(=O)c2ccco2)c1O | inactive |
| CCOc1nc(-c2ccccc2)c2cc(Br)ccc2n1 | inactive |
| O=C(N/N=C/c1cccnc1)c1ccccc1 | inactive |
| COc1ccc(/C=N/NC(=S)Nc2cccc(C(=O)O)c2)cc1 | inactive |
| COc1ccc(C[C@@H]2c3cc(O)c(OC)cc3CCN2C)cc1O | inactive |
| COc1ccc(CCn2c(=N)c(C(=O)NCC3CCCO3)cc3c(=O)n4ccccc4nc32)cc1 (configuration not stated) | inactive |
| CCC(=O)N(CC)C1=C(O)c2ccccc2C(=O)C1=O | inactive |
| O=C(NC1CCSc2ccccc21)c1ccc([N+](=O)[O-])cc1 (configuration not stated) | inactive |
| O=C(O)Cn1c(O)c(C2=c3ccccc3=NC2=O)sc1=O | inactive |
| COc1cccc(NC(=S)NNC(=O)C(C)n2nc(C)c([N+](=O)[O-])c2C)c1 (configuration not stated) | inactive |
| CCOC(=O)C1CSc2[nH]c(=O)sc2C1c1ccccc1 (configuration not stated) | inactive |
| COc1ccccc1N1C(=O)C2C(C(=O)c3ccccc3)=NN(c3ccccc3OC)C2C1=O (configuration not stated) | inactive |
| O=C(CSc1nnc(COc2ccccc2)o1)Nc1nccs1 | inactive |
| Cc1ccc2c(c1)c(C1=NC(=S)NC1=O)c(O)n2C | inactive |
| CSc1nsc2nc(=O)c(/C=C3\C(C)=Nc4ccc(C)cc43)c(N)n12 | inactive |
| O=C(O)c1ccc(N2Cc3ccccc3C2)cc1O | inactive |
| CC(=O)Nc1ccc(/C=N\NC(=O)CNS(=O)(=O)c2ccc([N+](=O)[O-])cc2)cc1 | inactive |
| O=C1N=C(N2C=CC(=C3C=CNC=C3)C=C2)/C(=C/N=NC(=O)c2ccccc2)S1 | inactive |
| O=c1[nH]cnc2c1C(c1ccc(Cl)cc1)c1c(nc[nH]c1=O)O2 | inactive |
| COCCNc1ncnc2nc[nH]c12 | inactive |
| CC1CN2C(c3ccc([N+](=O)[O-])cc3)=CSC2=N1 (configuration not stated) | inactive |
| COCCNC(=S)NNC(=O)c1cccs1 | inactive |
| O=[N+]([O-])c1ccc(C2=CSC3=NCCN23)cc1 | inactive |
| C=CCn1c(O)c(N=NC(=O)CNC(=O)/C=C/c2ccco2)c2ccccc21 | inactive |

| Structure (SMILES) | activity change, negative = inhibition |
| --- | --- |
| Oc1c(C=Nc2ccccc2)sc(=S)n1Cc1ccccc1 | inactive |
| CN1/C(=C\C=C(/C#N)C(=O)Nc2ccccc2F)C(C)(C)c2ccccc21 | inactive |
| Cc1c(Br)c(=O)oc2c(Br)c(O)c(O)cc12 | inactive |
| NC(=O)c1cccc2cc3ccccc3cc12 | inactive |
| NC1=C([N+](=O)[O-])C(c2ccc3c(c2)OCO3)C2=C(CCCC2=O)O1 (configuration not stated) | inactive |
| COc1cccc(CNC23CC4CC(CC(C4)C2)C3)c1OCc1ccccc1 | inactive |
| COc1ccc2cc3c(N)c(C(=O)NCc4ccco4)sc3nc2c1 | inactive |
| N=C1C(c2nc3ccccc3[nH]2)=C(O)CN1c1ccccc1 | inactive |
| COc1ccc(NC(=O)c2cccs2)cn1 | inactive |
| CN=c1scc(-c2ccco2)n1/N=C/c1ccc(O)c(O)c1 | inactive |
| O=C(Nc1ccc(OCc2ccccc2)cc1)Nc1cccnc1 | inactive |
| COc1cc(/C=C2\CCCc3c2nc2ccccc2c3C(=O)O)cc(OC)c1O | inactive |
| Cc1c(CN2CCCC(C)C2)c(O)n(CCO)c(=O)c1C#N (configuration not stated) | inactive |
| O=C1N=c2ccccc2=C1c1sc(=S)n(NC(=O)c2ccccc2)c1O | inactive |
| COC(=O)c1ccc(-c2ccc(C(c3c(C)[nH][nH]c3=O)c3c(C)[nH][nH]c3=O)o2)cc1 | inactive |
| Cc1cccn2c(=O)c3cc(S(=O)(=O)c4ccc(Br)cc4)c(=N)n(C4CCCCC4)c3nc12 | inactive |
| COc1ccccc1NCc1cc(=O)oc2c(C)c(O)ccc12 | inactive |
| CC(=O)Nc1ccc2c(c1)C(=O)N(c1cccc(C)c1)C2=O | inactive |
| COC(=O)C1CSc2[nH]c(=O)sc2C1c1ccc(O)c(OC)c1 (configuration not stated) | inactive |
| CCn1c(O)c(N=NC(=O)CNC(=O)/C=C/c2ccco2)c2ccccc21 | inactive |
| COC(=O)c1cccc2nc3c(C(C)O)cccc3nc12 (configuration not stated) | inactive |
| COc1ccc(N=C2S/C(=C\c3ccc(N4CCOCC4)o3)C(=O)N2CCc2c[nH]c3ccccc23)cc1 | inactive |
| O=C1OC(C(=O)O)Cc2ccccc21 (configuration not stated) | inactive |
| CCCc1cc(C(=O)Cc2ccc(C(=O)OCC)o2)c(O)cc1O | inactive |
| O=c1oc2cc([N+](=O)[O-])ccc2nc1/C=C(\O)c1cccc(Br)c1 | inactive |
| CCOc1ccccc1N=NC1C(=O)N(C(N)=S)N=C1C (configuration not stated) | inactive |

| Structure (SMILES) | activity change, negative = inhibition |
| --- | --- |
| Cc1c(Cl)cccc1NC(=O)C(=O)NNS(=O)(=O)c1ccc(F)cc1 | inactive |
| COC(=O)c1cc2c(-c3ccccc3)c(C)c3ccccn3c-2c1C(=O)OC | inactive |
| C#CCOCCOCCOCCNc1nc(N2CCN(C(=O)[C@H]([C@@H](C)CC)n3cc([C@@H](N)CO)nn3)CC2)nc(N2CCN(C(=O)[C@H]([C@@H](C)CC)n3cc([C@@H](N)CO)nn3)CC2)n1 | inactive |
| COc1cc2c3c(c1OC)-c1cc(O)ccc1CC3NCC2 (configuration not stated) | inactive |
| Cc1cc(/C=C2\C(=O)NC(=O)N(c3cccc(F)c3)C2=O)c(C)n1-c1cc(C(=O)O)cc(C(=O)O)c1 | inactive |
| O=c1[nH]cnc2c1C(c1ccccc1)c1c(nc[nH]c1=O)O2 | inactive |
| O=c1cc(-c2ccccc2)oc2ccc(O)cc12 | inactive |
| CCS(=O)(=O)c1ccc2oc(=O)c(/C=C(\O)c3ccc(Cl)cc3)nc2c1 | inactive |
| O=C(N/N=C/c1c(O)ccc2ccccc12)c1ccc[n+](CCO)c1 | inactive |
| Nc1cc(C(=O)O)c(Oc2ccc(Cl)cc2Cl)cc1C(=O)O | inactive |
| O=C1N=c2ccccc2=C1c1sc(=S)n(NC(=O)c2cccc(O)c2)c1O | inactive |
| Cc1ccc(C(=O)/C=C/c2ccccc2[N+](=O)[O-])cc1 | inactive |
| Cc1cccnc1Nc1nc(-c2ccc(O)cc2O)cs1 | inactive |
| O=C(CCc1ccccc1)N/N=C\c1cc2c(cc1Br)OCO2 | inactive |
| CCOc1ccc(N2C(=O)C(Cl)=C(Nc3ccccc3O)C2=O)cc1 | inactive |
| Cc1ccc(-c2cc(C(=O)Nc3ccc(S(=O)(=O)Nc4ncccn4)cc3)[nH]n2)c(O)c1C | inactive |
| Oc1cccc(NC(=S)N=Nc2c(O)[nH]c3ccc(Br)cc23)c1 | inactive |
| COc1ccc(CCNc2c3ccccc3nc3ccccc23)cc1OC | inactive |
| CC[N+](C)(CC)CCCOC(=O)C(O)(c1ccccc1)C1CCCCC1 (configuration not stated) | inactive |
| N=C1C(c2nc3ccccc3[nH]2)=C(O)CN1c1ccc(F)cc1 | inactive |
| CCC(COC(C)=O)Nc1nc2c([nH]1)c(=O)n(C)c(=O)n2C (configuration not stated) | inactive |
| COc1ccc(OC)c(Nc2nc(-c3ccc(O)c(O)c3)cs2)c1 | inactive |
| CCCCN(C(=O)c1ccc([N+](=O)[O-])o1)c1c(N)n(CCCC)c(=O)[nH]c1=O | inactive |
| C=CCn1c(Cc2nc3ccc(Cl)cc3[nH]2)n[nH]c1=S | inactive |
| COc1ccccc1N1C(=O)S/C(=C\c2cccs2)C1=O | inactive |
